PubChem BioAssay (NCI)
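Cells were grown in 96-well plates and exposed to each compound for 48 hours at five concentrations; endpoints were interpolated linearly between bracketing concentrations, or set to the highest concentration if not reached. TGI marks complete inhibition of growth.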

Experiments:
Assay in all cases: inhibition of tumour cell growth, NCI panel, 48 h
CCRF-CEM leukemia = test system: CCRF-CEM leukemia
SN12C renal = test system: SN12C renal
NCI-H23 lung = test system: NCI-H23 lung
PC-3 prostate = test system: PC-3 prostate
786-0 renal = test system: 786-0 renal
EKVX NSCLC = test system: EKVX NSCLC
HOP-92 NSCLC = test system: HOP-92 NSCLC
RXF 393 renal = test system: RXF 393 renal
SNB-19 CNS = test system: SNB-19 CNS
NCI-H522 lung = test system: NCI-H522 lung
SK-MEL-28 melanoma = test system: SK-MEL-28 melanoma
COLO 205 colon = test system: COLO 205 colon
HS 578T breast = test system: HS 578T breast
UO-31 renal = test system: UO-31 renal
T-47D breast = test system: T-47D breast
TK-10 renal = test system: TK-10 renal
HCT-15 colon = test system: HCT-15 colon
OVCAR-8 ovarian = test system: OVCAR-8 ovarian
MDA-MB-231 breast = test system: MDA-MB-231 breast
UACC-62 melanoma = test system: UACC-62 melanoma
LOX IMVI melanoma = test system: LOX IMVI melanoma
U251 CNS = test system: U251 CNS
IGROV1 ovarian = test system: IGROV1 ovarian
UACC-257 melanoma = test system: UACC-257 melanoma
OVCAR-3 ovarian = test system: OVCAR-3 ovarian
SF-268 CNS = test system: SF-268 CNS
HT29 colon = test system: HT29 colon
HOP-62 NSCLC = test system: HOP-62 NSCLC
HL-60(TB) leukemia = test system: HL-60(TB) leukemia
KM12 colon = test system: KM12 colon
OVCAR-4 ovarian = test system: OVCAR-4 ovarian
DU-145 prostate = test system: DU-145 prostate
A549 NSCLC = test system: A549 NSCLC
SF-539 CNS = test system: SF-539 CNS
OVCAR-5 ovarian = test system: OVCAR-5 ovarian
NCI-H460 lung = test system: NCI-H460 lung
A498 renal = test system: A498 renal
SR leukemia = test system: SR leukemia
NCI/ADR-RES ovarian = test system: NCI/ADR-RES ovarian
CAKI-1 renal = test system: CAKI-1 renal
K-562 leukemia = test system: K-562 leukemia
ACHN renal = test system: ACHN renal
MOLT-4 leukemia = test system: MOLT-4 leukemia
HCC-2998 colon = test system: HCC-2998 colon
MDA-N = test system: MDA-N
SK-MEL-2 melanoma = test system: SK-MEL-2 melanoma
SK-MEL-5 melanoma = test system: SK-MEL-5 melanoma
SF-295 CNS = test system: SF-295 CNS
SW-620 colon = test system: SW-620 colon
MCF7 breast = test system: MCF7 breast
M14 melanoma = test system: M14 melanoma
HCT-116 colon = test system: HCT-116 colon
MDA-MB-435 = test system: MDA-MB-435
BT-549 breast = test system: BT-549 breast
SNB-75 CNS = test system: SNB-75 CNS
MALME-3M melanoma = test system: MALME-3M melanoma
NCI-H226 lung = test system: NCI-H226 lung
SK-OV-3 ovarian = test system: SK-OV-3 ovarian

Measured: TGI

COC(=O)C12C3C4(C(=O)OC)C1C1(C(=O)OC)C2C3(C(=O)OC)C41C(=O)N(C(C)C)C(C)C (stereo not given)
not listed: MALME-3M melanoma | NCI-H226 lung | SK-OV-3 ovarian
> 100 µM: all other assays above

Cc1cc(S(=O)(=O)n2cc[nH]c2=O)c(SCCCN(C)C)cc1Cl
not listed: HOP-92 NSCLC | HL-60(TB) leukemia | SNB-75 CNS
> 100 µM: all other assays above
